The values below come from paper PMC4200852, “Metabolism of Cryptic Peptides Derived from Neuropeptide FF Precursors: The Involvement of Insulin-Degrading Enzyme” (International Journal of Molecular Sciences, 2014).

A word on the Kd: it is the concentration at which binding is half-saturated.

The subject of data set [1] is IDE. The note with it: statement without data or reference; cited from earlier work.
A short description of data set [2]: NPNA metabolism by enzyme fractions separated from rat brain cortex homogenate, ESI-MS. The following applies: for peptide fragment (sequence) formed: 120 min. Type of data set: in vitro ADME, male Wistar rats. How it is done:
Brain cortices were rapidly removed from the male Wistar rats (150–200 g) and frozen immediately on dry ice. Tissues were kept at −80 °C until assayed. Brain was homogenized in an ice-cold 20 mM Tris–HCl buffer, pH 7.5, and diluted 1:6. The obtained homogenate was centrifuged twice at 14,000× g for 10 min at 4 °C.
Enzymes present in the rat brain homogenate were separated on the ion-exchange column Econo-Pac High Q (resin volume: 5 mL; Bio-Rad, Berkeley, CA, USA). Gradient separation was performed by the HPLC system Prominence LC-20 AD with a Photodiode Array Detector SPD-M20A (Shimadzu, Tokyo, Japan). The sample volume loaded on the column was 1 mL. The mobile phase consisted of 20 mM Tris–HCl buffer, pH 7.5, and a gradient of NaCl from 0 to 500 mM in 60 min was used. The total flow rate was 1 mL/min. One-point-five-milliliter fractions were collected during the separation and stored in −80 °C prior to further experiments.
Enzyme assays were performed in 0.5-mL Eppendorf tubes. Each homogenized brain fraction was diluted 1:5 with 20 mM Tris–HCl buffer, pH 7.5, and the reaction was initiated by the addition of 5 μg of NPNA and continued by mixing at 37 °C for 120 min (or for 300 min for preparing time course metabolic process). Five-microliter aliquots were taken from the incubation mixture, acidified by 30% MeOH with 0.1% FA and analyzed by ESI-MS (Bruker Esquire 3000) equipped with an autosampler (Famos, Thermo Scientific, earlier LC-Packings, Bremen, Germany). MS/MS analysis was performed to confirm the sequence of the released fragments. Quantitation of the enzyme activity was performed by integration of the peak area of formed products on the mass chromatogram. The samples were incubated with and without amastatin, an aminopeptidase inhibitor.

Data set [3] concerns IDE, His-Tag, rat, recombinant. Nature of the data set: Proteolysis by insulin-degrading enzyme (IDE) in vitro, ESI-MS. Type of data set: in vitro ADME. The note with it: 37 °C; for stability without IDE: no IDE. An excerpt: Other peaks assigned to the same fragments with the addition of Na^+ and K^+ are not labelled for simplicity.
IDE, His-Tag, rat, recombinant, from Spodoptera frugiperda, was purchased from Calbiochem (Milan, Italy), and its activity was verified by carrying out enzymatic digestion of insulin solutions according to the experimental procedure previously reported. Methanol (MeOH), formic acid (FA), Tris–HCl buffer, phosphate buffered saline (PBS) buffer and all chemicals used were purchased from Sigma–Aldrich. ZIPTIP C18 was purchased from Millipore (Milan, Italy). IDE enzymatic assays were carried out by incubating the enzyme solution (0.4 μM) at 37 °C with the peptide solution at the indicated concentration. After purification with ZIPTIP C18, 3 μL of the resulting solution were mixed with 50 μL of water and 50 μL of MeOH and injected into the mass spectrometer at 5 μL/min. ESI-MS experiments were performed by using a Finnigan LCQ DECA XP PLUS ion trap spectrometer operating in the positive ion mode and equipped with an orthogonal ESI source (Thermo Electron Corporation, Madison, WI, USA). Sample solutions were injected into the ion source using nitrogen as the drying gas. The mass spectrometer operated with a capillary voltage of 46 V and capillary a temperature of 250 °C, while the spray voltage was 4.3 kV. MS/MS data were interpreted by using the “Molecular Weight Calculator” software by Matthew Monroe freely available on the web.

Data set [4] can be described thus: NPPW 1–25 degradation in rat brain homogenate, with and without amastatin, ESI-MS. Type of data set: in vitro ADME. The following applies: NPPW 1–25, rat brain homogenate. The procedure: We then tested the degradation of NPPW 1–25 peptide after incubation with rat brain homogenate, with and without the addition of amastatin. The latter was added to exclude the activity of aminopeptidases that are abundant in CNS. Such activity is responsible, among others, for the inactivation of opioid peptides, by truncation of the N-terminal Tyr, thus preventing binding to opioid receptors. […] In Table 2, the assignment of the peptide fragments detected is reported, while in Figure 4, a quantitative detection of their amounts at different incubation times is also shown. […] A further proof of this thesis could be obtained by applying selective IDE inhibitors that could become more easily available in the near future.
Brain cortices were rapidly removed from the male Wistar rats (150–200 g) and frozen immediately on dry ice. Tissues were kept at −80 °C until assayed. Brain was homogenized in an ice-cold 20 mM Tris–HCl buffer, pH 7.5, and diluted 1:6. […]
Enzyme assays were performed in 0.5-mL Eppendorf tubes. […] Five-microliter aliquots were taken from the incubation mixture, acidified by 30% MeOH with 0.1% FA and analyzed by ESI-MS (Bruker Esquire 3000) equipped with an autosampler (Famos, Thermo Scientific, earlier LC-Packings, Bremen, Germany). […] Quantitation of the enzyme activity was performed by integration of the peak area of formed products on the mass chromatogram. […]

Data set [5] has as its target T1, IDE (Rattus norvegicus, UniProt P35559).
T1 construct: His-Tag; purchased Calbiochem (Milan, Italy); host or cells: Spodoptera frugiperda
T1 sequence (P35559 1-1019): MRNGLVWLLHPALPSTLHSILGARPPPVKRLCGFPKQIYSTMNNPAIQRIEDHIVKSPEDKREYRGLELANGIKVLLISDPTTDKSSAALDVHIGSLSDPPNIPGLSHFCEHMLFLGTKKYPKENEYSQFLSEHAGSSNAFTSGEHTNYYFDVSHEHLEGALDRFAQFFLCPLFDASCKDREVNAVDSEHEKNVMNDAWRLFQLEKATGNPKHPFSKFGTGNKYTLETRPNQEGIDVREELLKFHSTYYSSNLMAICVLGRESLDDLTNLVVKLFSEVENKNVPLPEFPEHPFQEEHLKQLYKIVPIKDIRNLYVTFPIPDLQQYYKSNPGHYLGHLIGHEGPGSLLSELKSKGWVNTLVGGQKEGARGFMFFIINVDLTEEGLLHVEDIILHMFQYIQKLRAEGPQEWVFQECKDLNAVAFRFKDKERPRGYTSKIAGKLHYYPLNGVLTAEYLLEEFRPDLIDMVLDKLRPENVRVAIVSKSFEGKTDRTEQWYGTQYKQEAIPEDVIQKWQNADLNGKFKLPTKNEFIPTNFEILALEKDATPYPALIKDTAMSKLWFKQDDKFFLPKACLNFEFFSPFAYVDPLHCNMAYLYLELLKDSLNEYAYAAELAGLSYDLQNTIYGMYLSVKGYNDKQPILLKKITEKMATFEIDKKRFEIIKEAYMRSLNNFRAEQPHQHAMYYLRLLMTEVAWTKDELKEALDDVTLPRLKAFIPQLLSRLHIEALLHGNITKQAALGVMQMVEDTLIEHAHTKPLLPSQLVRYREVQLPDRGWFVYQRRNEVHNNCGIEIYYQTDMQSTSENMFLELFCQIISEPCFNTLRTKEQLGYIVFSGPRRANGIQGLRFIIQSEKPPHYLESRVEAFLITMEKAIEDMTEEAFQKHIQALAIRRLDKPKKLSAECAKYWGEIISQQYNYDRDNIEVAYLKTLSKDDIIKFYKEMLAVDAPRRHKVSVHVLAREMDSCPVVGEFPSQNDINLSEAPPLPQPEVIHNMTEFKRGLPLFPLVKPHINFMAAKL
The data set can be described thus: Surface Plasmon Resonance (SPR) OneStep binding to immobilized IDE. The following applies: comparison among the peptides tested.

The target in data set [6] is T2, Insulin-degrading enzyme (IDE), His-Tag, rat, recombinant (rat, UniProt P35559 1-1019).
T2 construct: Insulin-degrading enzyme, rat, recombinant with His-Tag; Bought protein; immobilised by amine coupling for SPR; source: bought: Calbiochem (recombinant, from Spodoptera frugiperda)
T2 sequence (looked up): T1 sequence (P35559 1-1019)
Nature of the data set: SPR; SensiQ Pioneer, OneStep approach; IDE immobilised by amine coupling on a COOH5 chip; peptides in solution (initial concentrations NPSA 74 uM, NPNA 74 uM, NPPW 150 uM); 0.01 M HEPES, 0.15 M NaCl, pH 7.4; fitted with Qdat, one binding site model for NPNA, two binding site model for NPSA and NPPW. The following applies: both partners purified.

“Also recorded” adds a separate entry of the source. Ends that are not written are not given here.

`CC(C)C[C@@H](N)[C@H](O)C(=O)N[C@H](C(=O)N[C@H](C(=O)N[C@@H](CC(=O)O)C(=O)O)C(C)C)C(C)C` [amastatin, reference compound]: the “inhibition of IDE” value in the data set with IDE [1] is “not inhibited by amastatin”.

NAWGPWSKEQLSPQA [NPNA, NAWGPWSKEQLSPQA]: the “time of highest amount of main product 1–11” value in data set [2] (Fraction 23, 37 °C, pH 7.5) stood at 4 h. The “peptide fragment (sequence) formed” value in data set [2] (Fraction 23 from Econo-Pac High Q, 5 μg NPNA, 20 mM Tris–HCl pH 7.5, 37 °C, ESI-MS) is “SPQA”; in data set [2] (Fraction 26 from Econo-Pac High Q, 5 μg NPNA, 20 mM Tris–HCl pH 7.5, 37 °C, ESI-MS), “NAW and GPW and SKEQL and SPQA”. For the same molecule, the “main product, time course” value in data set [2] (Fraction 26, 37 °C, pH 7.5) is “SKEQL”. Further, the “cleavage position by brain cortex proteases” value in data set [2] (rat brain cortex fractions, 20 mM Tris–HCl pH 7.5, 37 °C, ESI-MS) was “mainly at the carboxyl side of the tryptophan and leucine; also recorded: mainly at the carboxyl side of tryptophan and leucine”. The “time of highest product intensity” value in data set [2] (time course, rat brain cortex fractions, 5 μg NPNA, 20 mM Tris–HCl pH 7.5, 37 °C, ESI-MS) is listed as 4 h. Also, in data set [3] (NPNA incubated with IDE, up to 24 h, ESI-MS), the “degradation by IDE” value is given as “not cleaved by IDE; also recorded: IDE is not able to degrade NPNA; also recorded: not degraded by IDE; also recorded: does not produce any NPNA fragments at all incubation times investigated”.

In the case of PQRFGRNAWGPWSKEQLSPQAREFW [NPPW 1–25], in data set [4], the major cleavage site entry was “Gln20–Ala21” and the “most abundant peptide fragment” value is listed as “NPPW 1–20”. For the same molecule, at IDE [5], the “relative KD for both binding sites” value is listed as “lowest KD values for both binding sites”. The “cleavage sites by IDE” value in data set [3] (50 μM NPPW 1–25, 8 nM IDE, PBS, 8 h, ESI-MS) was “Gly5–Arg6, Ala8–Trp9, Gly10–Pro11 and Gln20–Ala21”. In data set [3] (50 μM NPPW 1–25, 8 nM IDE, PBS, 8 h, ESI-MS, MS/MS), the “fragments produced by IDE” value is given as “WGPWSKEQLSPQ; also recorded: PQRFGRNAWGPWSKEQLSPQ at high abundance”. The “major cleavage site by IDE” value in data set [3] (50 μM NPPW 1–25, 8 nM IDE, PBS, ESI-MS) is on record as “Gln20–Ala21”. In data set [3] (50 μM NPPW 1–25, PBS, 8 h, ESI-MS), the “stability without IDE” value was “only the full-length peptide is detected”. For the same molecule, the “fragment generated only at longer incubation times with IDE” value in data set [3] (NPPW 1–25, more than 2 h, data not shown) is listed as “PWSKEQLSPQAREFW”. Also, the “most abundant fragment produced by IDE” value in data set [3] (NPPW 1–25 with IDE, ESI-MS) is recorded as “PQRFGRNAWGPWSKEQLSPQ”.

Consider SAWGSWSKEQLNPQA [NPSA, SAWGSWSKEQLNPQA], for which the “main cleavage site by IDE” value is “between Trp6 and Ser7” in data set [3] (50 μM NPSA, 8 nM IDE, PBS, 2 h, ESI-MS); “Trp6–Ser7” in data set [3] (50 μM NPSA, 8 nM IDE, PBS, 2 h, ESI-MS, listed as NPSA 1–15). Also, the “fragments produced by IDE” value in data set [3] (50 μM NPSA, 8 nM IDE, PBS, 2 h, ESI-MS, confirmed by MS/MS) was “SAWGSW; also recorded: SKEQLNPQA”. The “stability without IDE” value in data set [3] (50 μM NPSA, PBS, 2 h, ESI-MS) is “only the full-length peptide is detected”. Moreover, the “time to complete degradation by IDE” value in data set [3] ((IDE) = 1/6000 (NPSA), disappearance of NPSA molecular peak, 50 μM NPSA, PBS, ESI-MS) is reported as “two”.

B1: NPNA (NAWGPWSKEQLSPQA {1-15}) (peptide)
peptide: NAWGPWSKEQLSPQA
notes: NPNA, residues 85-99 of rat pro-NPFFA (neuropeptide FF precursor); also called NPNA 1-15; source: synthetic peptide (Fmoc solid phase synthesis, purified by HPLC)
B1: the Kd in data set [6] came out at 3.98 mM.
